Measured values from US20040014215A1, “Synchronised arabidopsis cell suspensions and uses thereof” (priority 2000, published 2004).

Tests used:
[1] = test system: alfalfa-cell suspension; conditions: blocked with aphidicolin for 36 h and released; cited from earlier work
[2] = test system: cell cycle; conditions: phase of the cell cycle at which cells are arrested; cited from earlier work
[3] = test system: CDK-a; assay: Northern expression analysis after aphidicolin synchronisation of MM1 (maximum signal = 100%); assay type: cell-based, Arabidopsis thaliana
Experimental: (§1) was analysed following the expression level of known cell cycle regulated genes. Synchronisation was performed as described in Example 2A, with the exception that two 7-day old cultures of the weekly sub-cultured cell suspension (210 ml each) were combined. 40 ml of combined culture was transferred into 200 ml of fresh MSS-medium in each of 10 separate flasks. After incubation for 24 hrs under conditions as described in Example 1, in the presence of 4.16 μg/ml aphidicolin, cells from 5 pooled flasks were washed through a nylon net (mesh size 47 μm) and washed with 2 litre MSS medium and shaken vigorously to remove the aphidicolin. Cells were transferred into a 50 ml plastic tube, washed again with MSS medium and centrifuged at 2500 rpm for 1 min (1075 rcf). Cells were resuspended and combined with the cells from the other 5 flasks similarly washed in a total volume of 300 ml fresh MSS-medium. 30 ml of this cell suspension was then added to 200 ml fresh MSS-medium in each of 10 separate flasks.
1) 25 ml for Northern blot (transferred into 50 ml plastic tube, centrifuged at 2500 rpm for 1 min, the supernatant discarded, and the cell pellet shock-frozen in liquid nitrogen before storing in −80° C. freezer)
Samples were collected at the time point indicated (time of removal of aphidicolin equals time point 0 hrs) and were analysed for expression of the following genes by Northern blot:
CDK-a (also called Cdc2a/CDK2a: Accession no. ATCDC2AP)
For each probe the maximum hybridisation signal obtained was defined as 100%.

[4] = test system: Transgenic MM1-cycD2 cell lines; assay: Aphidicolin block/release of transgenic MM1-cycD2 cell lines; assay type: cell-based, Arabidopsis thaliana; conditions: compared with non transgenic MM1 cell lines
Experimental: To re-establish liquid cultures of putative transgenic MM1-calli, callus tissue was transferred to a 55 mm petridish, carefully squeezed with a pipet tip and resuspended in 10 ml fresh MSS-medium (0.5 mg/l NM, 0.05 mg/l kinetin, 100 μg/ml kanamycin). The callus derived cell suspensions were incubated at 120 rpm, 23° C. under continuous light conditions in 100 ml Erlenmeyer flasks. After 10 days cultivation, 10 ml MSS-medium (0.5 mg/l NM, 0.05 mg/l kinetin) was added to the suspension cultures and left for further 7 days under conditions as above. 5 ml putative transgenic cell suspension was subcultured into 50 ml fresh MSS-medium (0.5 mg/l NM, 0.05 mg/l kinetin, 100 μg/ml kanamycin). This subculturing procedure was repeated twice at 7 days intervals in the same medium. Subsequent subculturing was carried out weekly into fresh MSS-medium (0.5 mg/l NAA, 0.05 mg/l kinetin without kanamycin selection), adjusting the transferred volume of cells to produce an inoculum of approximately the same as WT-MM1 culture. In the example of putative transgenic MM1-cycD2 cell suspensions, these were maintained by subculturing weekly 3.5 ml into 100 ml fresh MSS-medium (0.5 mg/l NAA, 0.05 mg/l kinetin) in 300 ml Erlenmeyer flasks. […] Putative transgenic calli or the suspension cultures thereof were analyzed using PCR and appropriate primers allowing to detect the cycD2 coding region. […]

[5] = test system: tobacco BY-2 cell line; conditions: BY-2, aphidicolin block; cited from earlier work
[6] = test system: Arabidopsis cell suspension culture MM1; assay: Scaled-up aphidicolin (4.16 μg/ml, 24 hrs) synchronisation of MM1: LI and MI; assay type: cell-based, Arabidopsis thaliana
Experimental: as §1
For every time point a 30 ml sample was split into:
2) 5 ml for LI and Ml determination as described in Example 2A.
A MI peak of 9.8% was observed, about 12 hrs after release from the aphidicolin block. Labelling index was also determined and reached a peak of 52%, 3 h after release.

[7] = test system: Arabidopsis cell suspension culture; conditions: phosphate starvation 32 hours then aphidicolin, cited from earlier work
[8] = 0 hrs after aphidicolin removal
[9] = 2 hrs after aphidicolin removal
[10] = 4 hrs after aphidicolin removal
[11] = 6 hrs after aphidicolin removal
[12] = 8 hrs after aphidicolin removal
[13] = 10 hrs after aphidicolin removal
[14] = 12 hrs after aphidicolin removal
[15] = 14 hrs after aphidicolin removal
[16] = 16 hrs after aphidicolin removal
[17] = 18 hrs after aphidicolin removal
[18] = 20 hrs after aphidicolin removal
[19] = 22 hrs after aphidicolin removal
[20] = 24 hrs after aphidicolin removal
[21] = 26 hrs after aphidicolin removal
[22] = 28 hrs after aphidicolin removal
[23] = 30 hrs after aphidicolin removal

C[C@@]1(CO)[C@H](O)CC[C@@]2(C)[C@H]1CC[C@H]1C[C@@H]3C[C@@]12CC[C@]3(O)CO [aphidicolin]
peak mitotic index [1]: up to 40% | cell cycle arrest [2]: G1/early S | CDK-a % [3, 8]: 17.71% | CDK-a Band intensity [3, 8]: 321 | CDK-a % [3, 9]: 37.87% | CDK-a Band intensity [3, 9]: 687 | CDK-a % [3, 10]: 45.09% | CDK-a Band intensity [3, 10]: 818 | CDK-a % [3, 11]: 66.22% | CDK-a Band intensity [3, 11]: 1202 | CDK-a % [3, 12]: 58.06% | CDK-a Band intensity [3, 12]: 1054 | CDK-a % [3, 13]: 77.44% | CDK-a Band intensity [3, 13]: 1406 | CDK-a % [3, 14]: 80.20% | CDK-a Band intensity [3, 14]: 1456 | CDK-a % [3, 15]: 92.43% | CDK-a Band intensity [3, 15]: 1678 | CDK-a % [3, 16]: 79.03% | CDK-a Band intensity [3, 16]: 1435 | CDK-a % [3, 17]: 100.0% | CDK-a Band intensity [3, 17]: 1816 | CDK-a % [3, 18]: 89.25% | CDK-a Band intensity [3, 18]: 1620 | CDK-a % [3, 19]: 53.55% | CDK-a Band intensity [3, 19]: 972 | CDK-a % [3, 20]: 34.25% | CDK-a Band intensity [3, 20]: 621 | CDK-a % [3, 21]: 40.96% | CDK-a Band intensity [3, 21]: 743 | CDK-a % [3, 22]: 36.32% | CDK-a Band intensity [3, 22]: 659 | CDK-a % [3, 23]: 29.30% | CDK-a Band intensity [3, 23]: 532 | synchronisation by aphidicolin block/release [4]: could be synchronized in a similar way as non transgenic MM1 cell lines | mitotic index [5]: 45-50% | Labelling index peak ([6]; 3 h after release): 52% | MI peak ([6]; about 12 hrs after release from the aphidicolin block): 9.8% | cells in S-phase ([7]; 2 h after release of block): 50 to 60% | cells in G2 phase ([7]; after 8 h): 50%
